# Experimental data published in patent publication EP0187355A1, “Process for preparing beta-lactam antibiotics” (E.R. Squibb & Sons, Inc., priority 1981, dated 1982).
# Structures can show the parent of a compound that is named as a salt.
# What was measured:
# Test in all cases: MIC, agar dilution
# Format in all cases: cell-based
# [1] = test system: Acinetobacter calcoaceticus, 8333; conditions: Acinetobacter calcoaceticus, 8333, 18 h, K-10 agar, 10^4 CFU, 37°C, read-out: M.I.C.
# Method in brief: (§1)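 MIC, the lowest compound concentration preventing visible growth, is read after plates incubate 18 h at 37°C. Plates hold K-10 agar with twofold drug dilutions spanning 100 to 0.05 µg/ml, each spot-inoculated with 10^4 CFU.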
# [2] = test system: Citrobacter freundii, 9518; conditions: K-10 agar, 10^4 CFU, 37°C, 18 hours, read-out: M.I.C.
# Method in brief: as §1
# [3] = test system: Enterobacter aerogenes, 10078; conditions: Klebsiella aerogenes, 10078, 18 h, Enterobacter aerogenes, 10078; K-10 agar, 10^4 CFU, 37°C, 18 hours; read-out: M.I.C.
# Method in brief: as §1
# Escherichia coli, 10857 = conditions: Escherichia coli, 10857, 18 h, K-10 agar, 10^4 CFU, 37°C
# Method in brief: as §1
# Escherichia coli, 10896 = conditions: K-10 agar, 10^4 CFU, 37°C, 18 hours
# Method in brief: as §1
# Escherichia coli, 10909 = conditions: K-10 agar, 10^4 CFU, 37°C, 18 hours
# Method in brief: as §1
# Escherichia coli, 8294 = conditions: Escherichia coli, 8294, 18 h, K-10 agar, 10^4 CFU, 37°C
# Method in brief: as §1
# [4] = test system: Klebsiella aerogenes, 10440; conditions: K-10 agar, 10^4 CFU, 37°C, 18 hours, read-out: M.I.C.
# Method in brief: as §1
# [5] = test system: Klebsiella pneumoniae, 9527; conditions: Klebsiella pneumoniae, 9527, 18 h, K-10 agar, 10^4 CFU, 37°C, read-out: M.I.C.
# Method in brief: as §1
# Proteus mirabilis, 3855 = conditions: Proteus mirabilis, 3855, 18 h, K-10 agar, 10^4 CFU, 37°C, read-out: M.I.C.
# Method in brief: as §1
# Proteus rettgeri, 8479 = conditions: Providencia rettgeri, K-10 agar, 10^4 CFU, 37°C, 18 hours, read-out: M.I.C.
# Method in brief: as §1
# Proteus vulgaris, 9416 = conditions: K-10 agar, 10^4 CFU, 37°C, 18 hours, read-out: M.I.C.
# Method in brief: as §1
# [6] = test system: Pseudomonas aeruginosa, 8329; conditions: K-10 agar, 10^4 CFU, 37°C, 18 hours, read-out: M.I.C.
# Method in brief: as §1
# [7] = test system: Pseudomonas aeruginosa, 9545; conditions: Pseudomonas aeruginosa, 9545, 18 h, K-10 agar, 10^4 CFU, 37°C, read-out: M.I.C.
# Method in brief: as §1
# Salmonella typhosa, 1195 = conditions: Salmonella enterica, TYPHOSA, 18 h, K-10 agar, 10^4 CFU, 37°C
# Method in brief: as §1
# [8] = test system: Serratia marcescens, 9783; conditions: Serratia marcescens, 9783, 18 h, K-10 agar, 10^4 CFU, 37°C, read-out: M.I.C.
# Method in brief: as §1
# Shigella sonnei, 8449 = conditions: Shigella sonnei, 8449, 18 h, K-10 agar, 10^4 CFU, 37°C
# Method in brief: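 Shigella sonnei grown 18–20 h at 37°C in broth, diluted 1:100 and spotted at 10^4 CFU onto K-10 agar holding twofold compound dilutions (final 100 to 0.05 µg/ml). After 18 h at 37°C, MIC was read as the lowest concentration inhibiting growth.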
# [9] = test system: Staphylococcus aureus, 10165; conditions: Staphylococcus aureus, 10165; K-10 agar, 10^4 CFU, 37°C, 18 hours; read-out: M.I.C.
# Method in brief: as §1
# [10] = test system: Staphylococcus aureus, 1276; conditions: Staphylococcus aureus, 1276; K-10 agar, 10^4 CFU, 37°C, 18 hours; read-out: M.I.C.
# Method in brief: as §1
# [11] = test system: Staphylococcus aureus, 2399; conditions: Staphylococcus aureus, 2399, 18 h, Staphylococcus aureus, 2399; K-10 agar, 10^4 CFU, 37°C, 18 hours; read-out: M.I.C.
# Method in brief: as §1
# [12] = test system: Staphylococcus aureus, 2400; conditions: Staphylococcus aureus, 2400; K-10 agar, 10^4 CFU, 37°C, 18 hours; read-out: M.I.C.
# Method in brief: as §1
# [13] = test system: Streptococcus faecalis, 9011; conditions: Enterococcus faecalis; Streptococcus faecalis, 9011; K-10 agar, 10^4 CFU, 37°C, 18 hours; read-out: M.I.C.
# Method in brief: as §1
# [14] = test system: Enterobacter cloacae, 8236; conditions: Enterobacter cloacae, 8236, 18 h, K-10 agar, 10^4 CFU, 37°C
# Method in brief: (§2)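 Broth cultures grown 18-20 h at 37°C, diluted 1:100 in K-10 broth, applied by multipoint inoculator at 10^4 CFU onto K-10 agar holding twofold compound dilutions, 100 to 0.05 µg/ml final. MIC taken as lowest concentration inhibiting growth.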
# Micrococcus luteus, 2495 = conditions: Micrococcus luteus, 2495, 18 h, K-10 agar, 10^4 CFU, 37°C, read-out: M.I.C.
# Method in brief: as §2
# [15] = test system: Streptococcus agalactiae, 9287; conditions: Streptococcus agalactiae, 9287, 18 h, K-10 agar, 10^4 CFU, 37°C, read-out: M.I.C.
# Method in brief: as §2
Compound,MIC [1],MIC [2],MIC [3],"MIC (Escherichia coli, 10857)","MIC (Escherichia coli, 10896)","MIC (Escherichia coli, 10909)","MIC (Escherichia coli, 8294)",MIC [4],MIC [5],"MIC (Proteus mirabilis, 3855)","MIC (Proteus rettgeri, 8479)","MIC (Proteus vulgaris, 9416)",MIC [6],MIC [7],"MIC (Salmonella typhosa, 1195)",MIC [8],"MIC (Shigella sonnei, 8449)",MIC [9],MIC [10],MIC [11],further results
"C[C@H]1[C@H](NC(=O)/C(=N\OCC(=O)O)c2csc(N)n2)C(=O)N1S(=O)(=O)O [Example 31, [3S-[3α(Z),4β]]-3-[[[(Carboxymethoxy)imino](2-amino-4-thiazolyl)acetyl]amino]-4-methyl-2-oxo-l-azetidinesulfonic acid, dipotassium salt]",100 µg/mL,0.2 µg/mL,0.4 µg/mL,0.2 µg/mL,0.1 µg/mL,0.1 µg/mL,0.4 µg/mL,0.8 µg/mL,0.2 µg/mL,0.2 µg/mL,0.05 µg/mL,0.2 µg/mL,12.5 µg/mL,0.8 µg/mL,0.2 µg/mL,0.4 µg/mL,0.4 µg/mL,> 100 µg/mL,> 100 µg/mL,> 100 µg/mL,"MIC [12]: > 100 µg/mL; MIC [13]: > 100 µg/mL; MIC [14]: 0.2 µg/mL; MIC (Micrococcus luteus, 2495): > 100 µg/mL; MIC [15]: 100 µg/mL"
"CC1C(NC(=O)C(NC(=O)N2CCN(N)C(=O)C2=O)c2ccccc2)C(=O)N1S(=O)(=O)O (stereo not drawn) [Example 32, [3S(R*)]-3-[[[[(4-Amino-2,3-dioxo-1-piperazinyl)-carbonyl]amino]phenylacetyl]amino]-4-methyl-2-oxo-l-azetidinesulfonic acid, potassium salt]",50 µg/mL,3.1 µg/mL,6.3 µg/mL,0.4 µg/mL,12.5 µg/mL,0.8 µg/mL,3.1 µg/mL,1.6 µg/mL,0.2 µg/mL,0.4 µg/mL,0.4 µg/mL,0.2 µg/mL,50 µg/mL,6.3 µg/mL,0.2 µg/mL,3.1 µg/mL,6.3 µg/mL,> 100 µg/mL,25 µg/mL,12.5 µg/mL,"MIC [12]: 25 µg/mL; MIC [13]: > 100 µg/mL; MIC [14]: 6.3 µg/mL; MIC (Micrococcus luteus, 2495): 6.3 µg/mL; MIC [15]: 6.3 µg/mL"
